# Source: US11214803B2, “Modulators of YAP1 expression” (Ionis Pharmaceuticals, Inc., priority 2019, dated 2022)
# Strand notation (5' to 3'): a small letter for the sugar, then the base; units joined by * are phosphorothioate-linked, units joined directly phosphodiester-linked; [ ] holds rarer units or linkages, { } end groups; capitals alone tell only the bases. k = constrained ethyl (cEt); [5mC] = 5-methylcytosine; d = 2'-deoxy (DNA)
# Tested on: Yap1 mRNA
# Test: Dose-dependent inhibition of human Yap1 in A-431 cells (Example 8, 10,000 cells per well, RTS4814)
# Type: cell-based
# Details: free uptake, approximately 48 hours, RTS4814; for Yap1 mRNA, % UTC: A-431 cells, 10,000 cells per well; for IC50: A-431 cells, linear regression on log/linear plot
# Procedure: Modified oligonucleotides described in the studies above were tested at various doses in A-431 cells. Cultured A-431 cells at a density of 10,000 cells per well were treated using free uptake with modified oligonucleotides diluted to concentrations described in the tables below. After approximately 48 hours, Yap1 mRNA levels were measured as previously described using the Human Yap1 primer-probe set RTS4814. Yap1 mRNA levels were normalized to total RNA content, as measured by RIBOGREEN®. Results are presented in the tables below as percent control of the amount of Yap1 mRNA relative to untreated control cells (% UTC). IC50s were calculated using a linear regression on a log/linear plot of the data in excel.
Substance,"Yap1 mRNA, % UTC (31.3 nM)","Yap1 mRNA, % UTC (125.0 nM)","Yap1 mRNA, % UTC (500.0 nM)","Yap1 mRNA, % UTC (2000.00 nM)",IC50
1075689 (k[5mC]*kA*kA*d[5mC]*dT*dA*dT*dA*d[5mC]*dA*dA*dG*dG*k[5mC]*kA*kA; antisense) [compound 1075689],97 % UTC,59 % UTC,19 % UTC,8 % UTC,200 nM
1075243 (k[5mC]*kT*kT*dA*dG*dT*dA*dA*dG*dA*dA*dT*dT*kG*kT*k[5mC]; antisense) [compound 1075243],50 % UTC,18 % UTC,7 % UTC,5 % UTC,< 20 nM
1076327 (kG*kA*kT*dA*dA*dG*d[5mC]*dA*dA*dG*dG*dT*dT*k[5mC]*kT*k[5mC]; antisense) [compound 1076327],73 % UTC,38 % UTC,17 % UTC,9 % UTC,100 nM
1074409 (kG*kG*kA*dT*dT*dA*dA*dA*dG*dT*dA*dT*d[5mC]*kT*kT*kG; antisense) [compound 1074409],60 % UTC,30 % UTC,13 % UTC,7 % UTC,40 nM
1075810 (kG*kT*kA*dG*d[5mC]*dA*dA*dT*dA*dG*dA*dG*dT*kA*kA*k[5mC]; antisense) [compound 1075810],67 % UTC,28 % UTC,12 % UTC,7 % UTC,100 nM
1075744 (kT*kT*k[5mC]*dG*dG*dG*dT*dT*dA*dG*d[5mC]*dA*dG*kA*k[5mC]*kT; antisense) [compound 1075744],55 % UTC,22 % UTC,9 % UTC,7 % UTC,< 20 nM
1075115 (kG*kT*kA*dT*dA*dG*d[5mC]*d[5mC]*dT*dT*dA*dT*dT*k[5mC]*kT*kT; antisense) [compound 1075115],57 % UTC,41 % UTC,17 % UTC,9 % UTC,100 nM
1074536 (kA*kG*kT*dA*dA*dT*dA*dG*d[5mC]*dT*d[5mC]*dT*dT*kT*k[5mC]*kT; antisense) [compound 1074536],64 % UTC,24 % UTC,9 % UTC,6 % UTC,40 nM
1074274 (antisense kG*kT*kT*d[5mC]*dT*dT*dA*dT*dG*dG*dT*dT*dT*kA*kT*kA) [compound 1074274],42 % UTC,14 % UTC,7 % UTC,5 % UTC,< 20 nM
1076064 (kT*kA*kT*dG*dA*dA*d[5mC]*dA*dA*dT*dG*dT*dA*k[5mC]*kT*k[5mC]; antisense) [compound 1076064],68 % UTC,26 % UTC,10 % UTC,5 % UTC,100 nM
1076416 (kA*k[5mC]*k[5mC]*dG*dA*dA*dA*dT*dG*dA*dT*dA*d[5mC]*kT*kG*kA; antisense) [compound 1076416],67 % UTC,33 % UTC,13 % UTC,7 % UTC,100 nM
1075813 (kA*k[5mC]*kT*dA*dA*dT*dA*dT*dG*d[5mC]*dA*dA*d[5mC]*kT*k[5mC]*kT; antisense) [compound 1075813],57 % UTC,31 % UTC,11 % UTC,5 % UTC,40 nM
1074627 (DNA k[5mC]*k[5mC]*kT*dG*dT*dT*dA*dT*dG*dA*dA*d[5mC]*d[5mC]*k[5mC]*kT*kT; antisense) [compound 1074627],17 % UTC,5 % UTC,3 % UTC,3 % UTC,< 20 nM
1075712 (kG*kA*k[5mC]*dG*d[5mC]*dG*dA*dA*dA*dT*dA*d[5mC]*dT*kT*kA*k[5mC]; antisense) [compound 1075712],69 % UTC,38 % UTC,13 % UTC,7 % UTC,100 nM
